Experimental data as given in publication PMC8175350, “Drug repurposing screens identify chemical entities for the development of COVID-19 interventions” (Nature Communications, 2021).
Like-named read-outs stand apart in the source and are kept apart here.

Assays:
SARS-CoV-2 [1] = test: microbe, parasite or virus in culture; assay type: cell-based; conditions: for Emax: Severe acute respiratory syndrome coronavirus 2, HeLa-ACE2, 24 h, read-out: HeLa-ACE2 CoV-2 Sinf Average; for EC50: Severe acute respiratory syndrome coronavirus 2, HeLa-ACE2, detail column, read-out: HeLa-ACE2 CoV-2 EC50 GeoMean
[2] = Uninfected HeLa-ACE2 24 h live/dead cytotoxicity counter screen; assay type: cell-based, human; conditions: human, uninfected HeLa-ACE2 cells; read-out: HeLa-ACE2 uninfected cytotoxicity CC50 GeoMean
SARS-CoV-2 [3] = test: microbe, parasite or virus in culture; assay type: cell-based; conditions: for EC50: read-out: Calu-3 CoV-2 EC50 GeoMean
SARS-CoV-2 [4] = test: microbe, parasite or virus in culture; assay type: cell-based; conditions: for EC50: read-out: HeLa-ACE2 TOA CoV-2 EC50 GeoMean
HeLa-ACE2 cells [5] = test: Total cell count in the HeLa-ACE2 TOA (time of addition) assay; assay type: cell-based, human; conditions: Homo sapiens, HeLa-ACE2; read-out: HeLa-ACE2 TOA cell count EC50 GeoMean
HeLa-ACE2 cells [6] = test: cells; conditions: Homo sapiens; for EC50: HeLa-ACE2, read-out: HeLa-ACE2 cell count EC50 GeoMean
Calu-3 cells [7] = test: cells; conditions: Homo sapiens, Calu-3, read-out: Calu-3 cell count EC50 GeoMean
in vitro [8] = conditions: human
HepG2 [9] = test: HepG2 72 h CellTiter-Glo cytotoxicity; conditions: 72 h
[10] = HEK293T 72 h CellTiter-Glo cytotoxicity; conditions: human, HEK293T cells
HeLa-ACE2 cells [11] = test: Uninfected HeLa-ACE2 24 h live/dead cytotoxicity counter screen; assay type: cell-based, human; conditions: curve plateau at infinite concentration
SARS-CoV-2 [12] = assay type: cell-based; conditions: combination with remdesivir, synergy score δ
HeLa-ACE2 cells [13] = test: Total cell count in the HeLa-ACE2 TOA assay; assay type: cell-based; conditions: Homo sapiens, HeLa-ACE2; read-out: HeLa-ACE2 TOA cell count EC50 GeoMean
Source text: Supplement 41467_2021_23328_MOESM3_ESM.xlsx, sheet "Table S1" | column: HeLa-ACE2 TOA cell count

Calu-3 cells [14] = test system: Calu-3 cells
HepG2 [15] = conditions: human, 72 h
HEK293T = conditions: human, 72 h
in vitro [16] = conditions: human, Calu-3 uninfected cytotoxicity CC50 GeoMean
in vitro [17] = conditions: human; remark: listed apart in the source

For `CC[C@H]1OC(=O)[C@H](C)[C@@H](O[C@H]2C[C@@](C)(OC)[C@@H](O)[C@H](C)O2)[C@H](C)[C@@H](O[C@@H]2O[C@H](C)C[C@H](N(C)C)[C@H]2O)[C@](C)(O)C[C@@H](C)CN(C)[C@H](C)[C@@H](O)[C@]1(C)O` [Azithromycin], which Emax (SARS-CoV-2 [1]) is on record?
The Emax was 100%.

And the EC50 (SARS-CoV-2 [1])?
The EC50 was 650 nM.

And the “HeLa-ACE2 SI” value (SARS-CoV-2 [1]; selectivity index, uninfected HeLa-ACE2 CC50 / SARS-CoV-2 EC50)?
The value was greater than 61.26.

And the CC50 at 24 h [2]?
Its CC50 at 24 h is greater than 39.8 µM.

And the EC50 (SARS-CoV-2 [3]; Severe acute respiratory syndrome coronavirus 2, Calu-3)?
Its EC50 is greater than 9.85 µM.

What about the “TOA:HeLa-ACE2 EC50 Ratio” value (SARS-CoV-2 [4]) of the same molecule?
The value was 14.747.

What about the EC50 (SARS-CoV-2 [4]; Severe acute respiratory syndrome coronavirus 2, HeLa-ACE2, detail column) of the same molecule?
Its EC50 is greater than 9.59 µM.

What about the EC50 (HeLa-ACE2 cells [5]) of the same molecule?
The EC50 was greater than 9.59 µM.

And the EC50 (HeLa-ACE2 cells [6])?
Its EC50 is greater than 9.59 µM.

What about the EC50 (Calu-3 cells [7]) of the same molecule?
The EC50 was greater than 9.85 µM.

And the CC50 (in vitro [8])?
Its CC50 is greater than 39.8 µM.

And the “HepG2 72-hour cytotoxicity Sinf Average” value (HepG2 [9])?
Its value is -100%.

And the CC50 at 72 h [10]?
The CC50 at 72 h was greater than 39.8 µM.

With `COC(=O)C1=C(C)NC(C)=C(C(=O)OCCN2CCN(C(c3ccccc3)c3ccccc3)CC2)C1c1cccc([N+](=O)[O-])c1` (stereo not drawn) [Manidipine (Manyper)] as the molecule, how does the Emax (SARS-CoV-2 [1]; curve plateau at infinite concentration) read?
The Emax was 100%.

And the EC50 (SARS-CoV-2 [1])?
The EC50 was greater than 6890 nM.

What about the CC50 at 24 h [2] of the same molecule?
Its CC50 at 24 h is greater than 17.1 µM.

What about the “HeLa-ACE2 uninfected cytotoxicity Sinf Average” value (HeLa-ACE2 cells [11]) of the same molecule?
The value was -96%.

And the Emax (SARS-CoV-2 [3]; Severe acute respiratory syndrome coronavirus 2, Calu-3, 48 h, curve plateau at infinite concentration, read-out: Calu-3 CoV-2 Sinf Average)?
The Emax was 80%.

And the EC50 (SARS-CoV-2 [3]; Severe acute respiratory syndrome coronavirus 2, Calu-3, detail column)?
The EC50 was greater than 5.48 µM.

And the Emax (SARS-CoV-2 [4]; Severe acute respiratory syndrome coronavirus 2, HeLa-ACE2, 10 h, curve plateau at infinite concentration, read-out: HeLa-ACE2 TOA CoV-2 Sinf Average)?
The Emax was 100%.

And the EC50 (SARS-CoV-2 [4]; Severe acute respiratory syndrome coronavirus 2, HeLa-ACE2)?
Its EC50 is 7.72 µM.

And the “HeLa-ACE2 synergy score with remdesivi [δ]” value (SARS-CoV-2 [12])?
Its value is -4.727.

And the EC50 (HeLa-ACE2 cells [13])?
Its EC50 is greater than 9.61 µM.

And the “uninfected Calu-3 CC50” value (Calu-3 cells [14])?
The value was > 29.89 ×÷ 1.002 (n=5) μM.

What about the “Calu-3 uninfected cytotoxicity Sinf Average” value (Calu-3 cells [14]; human, 48 h) of the same molecule?
The value was -100%.

What about the “HepG2 72-hour cytotoxicity Sinf Average” value (HepG2 [15]) of the same molecule?
Its value is -100%.

And the “HEK293T 72-hour cytotoxicty Sinf Average” value (HEK293T)?
Its value is -100%.

And the Emax (HeLa-ACE2 cells [6]; HeLa-ACE2, 24 h, read-out: HeLa-ACE2 cell count Sinf Average)?
Its Emax is 100%.

And the EC50 (HeLa-ACE2 cells [6])?
Its EC50 is greater than 9.6 µM.

What about the EC50 (Calu-3 cells [7]) of the same molecule?
Its EC50 is greater than 9.98 µM.

What about the CC50 at 48 h (in vitro [16]) of the same molecule?
Its CC50 at 48 h is greater than 29.9 µM.

And the CC50 at 72 h (in vitro [8])?
The CC50 at 72 h was 30.7 µM.

And the CC50 at 72 h (in vitro [17])?
The CC50 at 72 h was 30.8 µM.
